In ChEMBL document CHEMBL3044893, “Synthesis and structureactivity relationships of aliphatic isothiocyanate analogs as antibiotic agents” (Med Chem Res, 2013):
≈ marks a conversion by molar mass, not a printed value.

Experiments:
[1] = 1-octanol-water partition coefficient, log P of the compound by shake flask method; format: physicochemical
[2] = system: Pectobacterium carotovorum; test: Growth inhibition of Pectobacterium carotovorum at 0.02 ug/ml after 12 hr by turbidometric analysis; format: functional; settings: read-out: GI
Rhizoctonia solani [3] = test: Growth inhibition of Rhizoctonia solani at 10 ug/ml after 24 to 28 […] by growth rate method; format: functional; settings: read-out: GI
[4] = system: Pectobacterium carotovorum; test: Growth inhibition of Pectobacterium carotovorum at 5 ug/ml after 12 hr by turbidometric analysis; format: functional; settings: read-out: GI
[5] = system: Pectobacterium carotovorum; test: Growth inhibition of Pectobacterium carotovorum at 0.2 ug/ml after 12 hr by turbidometric analysis; format: functional; settings: read-out: GI
[6] = system: Pectobacterium carotovorum; test: Growth inhibition of Pectobacterium carotovorum at 0.5 ug/ml after 12 hr by turbidometric analysis; format: functional; settings: read-out: GI
Rhizoctonia solani [7] = test: Antifungal activity against Rhizoctonia solani after 24 to 28 […] by growth rate method; format: functional, organism-based
[8] = system: Pectobacterium carotovorum; test: Antibacterial activity against Pectobacterium carotovorum after 12 hr by turbidometric analysis; format: functional, organism-based
Rhizoctonia solani [9] = test: Growth inhibition of Rhizoctonia solani at 500 ug/ml after 24 to 28 […] by growth rate method; format: functional; settings: read-out: GI
Rhizoctonia solani [10] = test: Growth inhibition of Rhizoctonia solani at 300 ug/ml after 24 to 28 […] by growth rate method; format: functional; settings: read-out: GI
[11] = system: Pectobacterium carotovorum; test: Growth inhibition of Pectobacterium carotovorum at 2 ug/ml after 12 hr by turbidometric analysis; format: functional; settings: read-out: GI
Rhizoctonia solani [12] = test: Growth inhibition of Rhizoctonia solani at 100 ug/ml after 24 to 28 […] by growth rate method; format: functional; settings: read-out: GI
Rhizoctonia solani [13] = test: Growth inhibition of Rhizoctonia solani at 50 ug/ml after 24 to 28 […] by growth rate method; format: functional; settings: read-out: GI
[14] = system: Pectobacterium carotovorum; test: Growth inhibition of Pectobacterium carotovorum at 1 ug/ml after 12 hr by turbidometric analysis; format: functional; settings: read-out: GI
[15] = system: Pectobacterium carotovorum; test: Growth inhibition of Pectobacterium carotovorum at 0.01 ug/ml after 12 hr by turbidometric analysis; format: functional; settings: read-out: GI
[16] = system: Pectobacterium carotovorum; test: Growth inhibition of Pectobacterium carotovorum at 10 ug/ml after 12 hr by turbidometric analysis; format: functional; settings: read-out: GI
[17] = system: Pectobacterium carotovorum; test: Growth inhibition of Pectobacterium carotovorum at 20 ug/ml after 12 hr by turbidometric analysis; format: functional; settings: read-out: GI
[18] = system: Pectobacterium carotovorum; test: Growth inhibition of Pectobacterium carotovorum at 30 ug/ml after 12 hr by turbidometric analysis; format: functional; settings: read-out: GI
[19] = system: Pectobacterium carotovorum; test: Growth inhibition of Pectobacterium carotovorum at 50 ug/ml after 12 hr by turbidometric analysis; format: functional; settings: read-out: GI
Rhizoctonia solani [20] = test: Growth inhibition of Rhizoctonia solani at 5 ug/ml after 24 to 28 […] by growth rate method; format: functional; settings: read-out: GI
[21] = system: Pectobacterium carotovorum; test: Growth inhibition of Pectobacterium carotovorum at 0.05 ug/ml after 12 hr by turbidometric analysis; format: functional; settings: read-out: GI
[22] = system: Pectobacterium carotovorum; test: Growth inhibition of Pectobacterium carotovorum at 80 ug/ml after 12 hr by turbidometric analysis; format: functional; settings: read-out: GI
[23] = system: Pectobacterium carotovorum; test: Growth inhibition of Pectobacterium carotovorum at 100 ug/ml after 12 hr by turbidometric analysis; format: functional; settings: read-out: GI
Rhizoctonia solani [24] = test: Growth inhibition of Rhizoctonia solani at 25 ug/ml after 24 to 28 […] by growth rate method; format: functional; settings: read-out: GI
Rhizoctonia solani [25] = test: Growth inhibition of Rhizoctonia solani at 15 ug/ml after 24 to 28 […] by growth rate method; format: functional; settings: read-out: GI
[26] = system: Pectobacterium carotovorum; test: Growth inhibition of Pectobacterium carotovorum at 70 ug/ml after 12 hr by turbidometric analysis; format: functional; settings: read-out: GI
Rhizoctonia solani [27] = test: Growth inhibition of Rhizoctonia solani at 70 ug/ml after 24 to 28 […] by growth rate method; format: functional; settings: read-out: GI

Structure (SMILES)	logP [1]	inhibition of growth at 10 µg/mL (Rhizoctonia solani [3])	inhibition of growth at 5 µg/mL [4]	EC50 (Rhizoctonia solani [7])	EC50 [8]	inhibition of growth at 500 µg/mL (Rhizoctonia solani [9])	inhibition of growth at 300 µg/mL (Rhizoctonia solani [10])	inhibition of growth at 100 µg/mL (Rhizoctonia solani [12])	inhibition of growth at 50 µg/mL (Rhizoctonia solani [13])	inhibition of growth at 10 µg/mL [16]	inhibition of growth at 20 µg/mL [17]	inhibition of growth at 50 µg/mL [19]	inhibition of growth at 5 µg/mL (Rhizoctonia solani [20])	other results
CCCCCN=C=S [1-ISOTHIOCYANATOPENTANE]	3.17	16%	72.3%	90 µg/mL (≈ 696 µM)	2.03 µg/mL (≈ 15.7 µM)	87.4%	69%	44.6%	34.9%	–	–	–	–	inhibition of growth at 0.02 µg/mL [2]: 2.04%; inhibition of growth at 0.2 µg/mL [5]: 22.3%; inhibition of growth at 0.5 µg/mL [6]: 26.2%; inhibition of growth at 2 µg/mL [11]: 36%
CCCCCCCCN=C=S [1-ISOTHIOCYANATOOCTANE]	4.7	21.8%	70.6%	34.7 µg/mL (≈ 203 µM)	1.17 µg/mL (≈ 6.83 µM)	84.2%	82.2%	74.8%	66.1%	83.1%	–	–	–	inhibition of growth at 1 µg/mL [14]: 47.8%; inhibition of growth at 0.5 µg/mL [6]: 24.7%; inhibition of growth at 0.01 µg/mL [15]: 6.4%
CCCCCCCN=C=S [1-ISOTHIOCYANATOHEPTANE]	4.19	21.6%	28.8%	54.5 µg/mL (≈ 346 µM)	7.51 µg/mL (≈ 47.7 µM)	89.1%	75.1%	62%	46.6%	68%	84.1%	97%	–	inhibition of growth at 30 µg/mL [18]: 94.4%
CCCCN=C=S [BUTYL ISOTHIOCYANATE]	2.66	15.5%	31.7%	42.8 µg/mL (≈ 372 µM)	26.1 µg/mL (≈ 227 µM)	–	91.6%	68.2%	57.7%	43.9%	84.4%	–	3.72%	inhibition of growth at 0.2 µg/mL [5]: 10.7%; inhibition of growth at 0.05 µg/mL [21]: 6.38%
CN=C=S [METHYLISOTHIOCYANATE]	1.13	41.5%	–	12.3 µg/mL (≈ 169 µM)	38.2 µg/mL (≈ 523 µM)	–	–	84.6%	77.5%	10.9%	29.9%	61.1%	–	inhibition of growth at 80 µg/mL [22]: 71.5%; inhibition of growth at 100 µg/mL [23]: 81.3%; inhibition of growth at 25 µg/mL (Rhizoctonia solani [24]): 66.3%; inhibition of growth at 15 µg/mL (Rhizoctonia solani [25]): 49.7%
CCCN=C=S [PROPYL ISOTHIOCYANATE]	2.15	50.1%	–	12 µg/mL (≈ 118 µM)	20.6 µg/mL (≈ 204 µM)	–	93.7%	84.2%	68%	29%	47%	76.3%	21.4%	inhibition of growth at 80 µg/mL [22]: 86%; inhibition of growth at 100 µg/mL [23]: 90.7%
CCN=C=S [ETHYL ISOTHIOCYANATE]	1.64	61.1%	–	3.52 µg/mL (≈ 40.4 µM)	41.6 µg/mL (≈ 478 µM)	–	–	91.8%	67.3%	6.74%	11.7%	64.6%	58.8%	inhibition of growth at 70 µg/mL [26]: 94.8%; inhibition of growth at 70 µg/mL (Rhizoctonia solani [27]): 73.9%; inhibition of growth at 30 µg/mL [18]: 48.5%
CCCCCCN=C=S [1-ISOTHIOCYANATOHEXANE]	3.68	–	–	–	–	–	–	–	–	–	–	–	–	–
